These results are taken from PubChem BioAssay AID602421 (The Scripps Research Institute Molecular Screening Center, 2012).

Molecules are shown by their SMILES. Values joined by “and” are separate entries in the source; they are usually repeats but may differ in a detail not shown here. Identical values can stand only once. Active and inactive are the calls of the source. How the calls were made is not given here. Some results are limits rather than exact numbers.

One may read the IC50 as the point on the concentration scale where inhibition reaches its midpoint.

This assay addresses AddAB helicase-nuclease (Helicobacter pylori 26695). Put plainly: AddAB nuclease inhibitors, potency, late-stage follow-up, biochemical, radioactivity, purified enzyme, IC50 (AID 602421). The following applies: radioactive DNA degradation.

On to `N#Cc1c(NC(=O)c2cnccn2)sc2c1CCCC2`, for which the IC50 is 17 µM.

Regarding `N#Cc1c(NC(=O)c2ccc(-c3ccccc3[N+](=O)[O-])o2)sc2c1CCCC2`, the IC50 is > 100 µM (inactive).

For the molecule `CCn1cc(C(=O)O)c(=O)c2cc(F)c(N3CCN(C(=S)Nc4ccccc4C(F)(F)F)CC3)cc21`, the IC50 was 79 µM.

For the molecule `O=C(Nc1ccc(N2CCOCC2)cc1)c1ccc([N+](=O)[O-])o1`, the IC50 is > 100 µM (inactive).

For the molecule `CCn1cc(C(=O)O)c(=O)c2cnc(N3CCN(C(=S)NC(=O)c4cccc(C)c4)CC3)nc21`, the IC50 result is “inactive”.

Consider `N#Cc1c(NC(=O)c2ccccc2)sc2c1CCC2`, for which the IC50 was > 100 µM (inactive).

As to `Cc1cccnc1NC(=O)c1ccc([N+](=O)[O-])o1`, the IC50 is > 166 µM (inactive).

For `COC(=O)c1c(-c2ccccc2)csc1NC(=O)c1cnccn1`, the IC50 was 11 µM.

For the molecule `CCn1cc(C(=O)O)c(=O)c2cnc(N3CCN(C(=S)NCc4ccccc4)CC3)nc21`, the IC50 entry is “inactive”.

For the molecule `Cc1ccc(C(=O)Nc2sc3c(c2C#N)CCCCC3)o1`, the IC50 was > 100 µM (inactive).

Consider `C=CCn1c(Sc2ncc([N+](=O)[O-])s2)n[nH]c1=O`, for which the IC50 is 93 µM.

Consider `N#Cc1c(NC(=O)c2ccccc2C(=O)O)sc2c1CCCC2`, for which the IC50 is > 100 µM (inactive).

For `CCn1cc(C(=O)O)c(=O)c2cnc(N3CCN(C(=S)Nc4cccc(C(F)(F)F)c4)CC3)nc21`, the IC50 is 27 µM.

Take `O=C(Nc1ncccn1)c1ccc([N+](=O)[O-])o1`: the IC50 is > 100 µM (inactive).

As to `CCn1cc(C(=O)O)c(=O)c2cnc(N3CCN(C(=S)Nc4ccccc4C(F)(F)F)CC3)nc21`, the IC50 is 34 µM and > 100 µM (inactive).

Regarding `N#Cc1c(NC(=O)c2ccc([N+](=O)[O-])o2)sc2c1CCC2`, the IC50 was 96 µM.

As to `Cc1sc(NC(=O)c2ccc(Br)o2)c(C#N)c1C`, the IC50 is 25 µM.

As for `CCn1cc(C(=O)O)c(=O)c2cc(F)c(N3CCN(C(=S)Nc4cccc(C(F)(F)F)c4)CC3)cc21`, the IC50 was 11 µM.

On to `Cc1ccc2nc(/C(C#N)=C\c3ccc([N+](=O)[O-])o3)[nH]c2c1`, for which the IC50 is > 166 µM (inactive).

Consider `N#Cc1c(NC(=O)c2ccco2)sc2c1CCC2`, for which the IC50 is 36 µM.

Regarding `O=C(NCc1cccnc1)c1ccc([N+](=O)[O-])o1`, the IC50 was > 100 µM (inactive).

As for `NC(=O)c1ccsc1NC(=O)COC(=O)c1ccc([N+](=O)[O-])o1`, the IC50 is > 100 µM (inactive).

Take `CC1(C)Cc2c(sc(NC(=O)c3ccco3)c2C#N)CO1`: the IC50 was > 100 µM (inactive).

With `CNC(=O)c1c(NC(=O)c2nc(SCc3ccccc3)ncc2Cl)sc2c1CCCC2`, the IC50 was 55 µM.

For the molecule `N#Cc1c(NC(=O)c2cccc(F)c2)sc2c1CCCC2`, the IC50 is > 100 µM (inactive).

On to `N#Cc1c(NC(=O)c2ccc([N+](=O)[O-])o2)sc2c1CCCC2`, for which the IC50 was > 100 µM (inactive).

On to `O=C(Nc1cccc(NC(=O)c2ccccc2Cl)c1)c1ccc([N+](=O)[O-])o1`, for which the IC50 is > 100 µM (inactive).

Turning to `O=C(OCC(=O)c1cccs1)c1ccc([N+](=O)[O-])o1`, the IC50 is > 100 µM (inactive).
